Measured values taken from US9486422B2, “Small molecule inhibitors of Mcl-1 and the uses of thereof” (THE REGENTS OF THE UNIVERSITY OF MICHIGAN, priority 2011, dated 2016).
Like-named read-outs stand apart in the source and are kept apart here.

How the values were obtained:
Mcl-1 = Mcl-1 (Homo sapiens, UniProt Q07820); assay: FP-based binding assay, Mcl-1
A1/Bfl-1 = biological target: T1, A1/Bfl-1 (Homo sapiens, UniProt Q16548); assay: FP-based binding assay, A1/Bfl-1
T1 sequence (Q16548 1-151): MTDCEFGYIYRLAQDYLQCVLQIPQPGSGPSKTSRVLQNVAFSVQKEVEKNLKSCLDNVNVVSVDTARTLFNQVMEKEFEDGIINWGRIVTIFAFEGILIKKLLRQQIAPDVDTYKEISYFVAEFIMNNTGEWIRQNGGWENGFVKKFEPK

Bcl-2 [1] = biological target: T2, Bcl-2 (Homo sapiens, UniProt P10415); assay: FP-based binding assay, Bcl-2; conditions: read-out: Bcl-2 Ki ± SD
T2 construct: His-tagged proteins containing; fused on or other part: A 16-residue segment of the flexible loop of Bcl-xL (BCL2L1, Q07817; given as residues 35 to 50) set into the Bcl-2 loop region; His tag with TEV site from the pHis-TEV vector
T2 sequence (P10415 with tags, fused parts or gaps with the stated changes): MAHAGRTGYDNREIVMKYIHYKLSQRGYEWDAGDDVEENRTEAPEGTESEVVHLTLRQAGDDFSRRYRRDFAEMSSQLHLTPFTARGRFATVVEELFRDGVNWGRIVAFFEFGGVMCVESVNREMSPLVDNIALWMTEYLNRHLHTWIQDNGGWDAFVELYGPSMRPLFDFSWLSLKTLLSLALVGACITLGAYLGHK

Bcl-2 [2] = assay: FP-based binding assay, Bcl-2
Bcl-w = biological target: T3, Bcl-w (Homo sapiens, UniProt Q92843); assay: FP-based binding assay, Bcl-w
T3 sequence (Q92843 1-155): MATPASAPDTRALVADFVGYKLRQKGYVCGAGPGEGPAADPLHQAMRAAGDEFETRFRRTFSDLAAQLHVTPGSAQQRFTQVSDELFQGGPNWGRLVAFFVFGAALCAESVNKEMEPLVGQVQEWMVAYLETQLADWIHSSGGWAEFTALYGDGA

BxPC-3 = assay: Cell growth inhibition (WST-8), BxPC-3; type: cell-based; conditions: Homo sapiens, BXPC-3, 96 h; 4 days treatment
Protocol: (§1) Human PC cell lines AsPC-1, BxPC-3 and Capan-2 were cultured in RPMI 1640 medium, while Panc-1 and MiaPaCa were cultured in DMEM medium (Life Technologies), all supplemented with 10% fetal bovine serum (Thermo Scientific HyClone). The rate of cell growth inhibition after treatment with increasing concentrations of the tested compounds was determined by WST-8 assay as described in the manufacturers protocol (Dojindo Molecular Technologies Inc.).

Panc-1 = assay: Cell growth inhibition (WST-8), Panc-1; type: cell-based; conditions: Homo sapiens, PANC-1, 96 h; 4 days treatment
Protocol: as §1

MiaPaCa-2 = assay: Cell growth inhibition (WST-8), MiaPaCa-2; type: cell-based; conditions: Homo sapiens, MIA PaCa-2, 96 h; 4 days treatment
Protocol: as §1

[3] = system: cytochrome c and Smac release in Panc-1 cells; assay: Release of cytochrome c and Smac from mitochondria (Western blot); type: cell-based, human; conditions: 24 h treatment
Protocol: The cells were treated and harvested at the indicated time points after treatment. Total cell lysates were subjected to electrophoresis onto SDS-containing 4-20% polyacrylamide gels (Invitrogen), and transferred to polyvinylidene difluoride (PVDF) membranes (Thermo Scientific). Following blocking in 5% milk, membranes were incubated with a specific primary antibody, washed, and incubated with horseradish peroxidase linked secondary antibody (Santa Cruz). The signals were visualized with the chemiluminescent horseradish peroxidase antibody detection reagent (Roche Molecular Biochemicals). Primary antibodies included: caspase-3 (Enzo Life Sciences), Mcl-1 and actin (Santa Cruz), Bcl-xL (BD Transduction Laboratories); Bcl-2, Bax, pro-PARP and cytochrome-c (Cell Signaling), Bak (Calbiochem), and Smac (Abgent).

[4] = biological target: T4, Mcl-1/Bax and Mcl-1/Bak complexes in BxPC-3 cells (Homo sapiens, UniProt Q07820); assay: Immunoprecipitation with Mcl-1 antibody, BxPC-3; type: cell-based; conditions: 4 μM, 24 h
T4 construct: endogenous in cells; host or cells: BxPC-3
T4 sequence (Q07820 whole entry, one chain of several): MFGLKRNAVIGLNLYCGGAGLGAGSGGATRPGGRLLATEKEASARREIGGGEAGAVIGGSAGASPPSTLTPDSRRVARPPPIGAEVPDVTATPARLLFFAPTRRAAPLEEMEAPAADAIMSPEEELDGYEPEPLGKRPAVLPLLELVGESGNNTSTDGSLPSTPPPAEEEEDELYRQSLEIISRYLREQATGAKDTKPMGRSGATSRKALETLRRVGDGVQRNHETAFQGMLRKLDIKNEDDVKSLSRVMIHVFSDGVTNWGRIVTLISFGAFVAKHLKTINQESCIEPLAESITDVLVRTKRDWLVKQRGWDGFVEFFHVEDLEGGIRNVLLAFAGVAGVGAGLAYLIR
Protocol: Cell lysate (500 μg) were subjected to immunoprecipitation by adding 2.5-5 μg of anti-Mcl-1 antibody and incubation overnight at 4° C. After adding 30 μl of Protein G-agarose (Immunoprecipitation Kit, Sigma) and incubation for 4 h, the samples were centrifuged. The agarose pellet was then washed 7 times, resuspended in Laemmli buffer (Santa Cruz), and boiled for 5 min. Boiled samples were centrifuged, and supernatant was used for Western blot analysis.

[5] = system: Bax/Bak-deficient (DKO) MEFs; assay: Induction of apoptosis in MEF DKO cells; type: cell-based, murine; conditions: 10 μM, 24 h
[6] = Metabolic stability assay, liver microsomes; type: in vitro ADME, mice; conditions: mouse, pooled mouse liver microsomes; 1 μM compound, 1.2 mg/ml microsomes, 37° C.
Protocol: Metabolic stability of UMI-77 was determined using the pooled mice liver microsomes (XenoTech, LLC). The conditions of the assay and quantification of UMI-77 in different time points are provided.
The β-NADPH (Sigma-Aldrich) was dissolved in 0.1 M phosphate buffer containing 3.3 mM MgCl2 right before use. The pooled mice liver microsomes (XenoTech, LLC) were diluted with 0.1 M phosphate buffer containing 3.3 mM MgCl2, followed by adding the reduced β-NADPH solution. After initiating the enzymes by adding β-NADPH, the mixture was incubated at 37° C. for […] The tested compound UMI-77 was added into the mixture and incubated at 37° C. The final concentrations of the compound, microsomes, β-NADPH, phosphate buffer and MgCl2 were 1 μM, 1.2 mg/ml, 1 mM, 0.1 M, and 3.3 mM, respectively. An aliquot of 40 μl of mixture was collected at 0, 5, 10, 15, 30, 45 and 60 min and the reaction was stopped immediately by adding 120 μl of ice-cold acetonitrile containing an internal standard (100 mg/mL). The incubation solution was centrifuged at 14000 rpm for 5 minutes to precipitate protein. The UMI-77 concentration was determined by LC/MS/MS (Agilent 1200 HPLC system, Agilent Technologies and QTRAP 3200 mass spectrometer, Applied Biosystems/MDS Sciex). UMI-77 was detected under negative ionization mode and the multiple reaction monitoring (MRM) ion transition was m/z 468.1→221.0.

BxPC-3 xenograft = BxPC-3 xenograft efficacy in SCID mice; type: in vivo; conditions: 60 mg/kg i.v., 5 days a week for two weeks
Protocol: For BxPC-3 subcutaneous model, 10×10^6 cells were subcutaneously injected into the flanks of 4-5 week old female severe combined immune deficient mice (ICR-SCID) (Taconic Farms) using 26 G ½ Precision Glide needles (Becton Dickinson). […] Tumors were measured twice weekly using a caliper and expressed in mg. To prevent any pain or discomfort, mice were euthanized and their tumors removed once they reached ˜1800 mg burden. […] Tumor weight was recorded throughout the treatment period using previously described methods.

[7] = mouse, in vivo, iv, 60 mg/kg

Chain of Mcl-1 (Q07820 171-327): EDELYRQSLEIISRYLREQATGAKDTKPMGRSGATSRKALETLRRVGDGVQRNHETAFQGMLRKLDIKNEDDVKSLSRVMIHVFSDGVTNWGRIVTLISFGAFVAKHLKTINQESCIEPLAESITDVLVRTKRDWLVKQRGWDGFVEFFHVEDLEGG

## O=C(O)CSc1cc(NS(=O)(=O)c2ccc(Br)cc2)c2ccccc2c1O [Compound 9, 2-((4-(4-Bromophenylsulfonamido)-1-hydroxynaphthalen-2-yl)thio)acetic acid]
Mcl-1
  fold improved binding to Mcl-1 compared to 2: 7 fold
Mcl-1; FP and SPR based binding studies, read-out: Ki to Mcl-1
  Ki: 0.49 µM
Mcl-1; competitive FP, Flu-BID 2 nM, Mcl-1 90 nM, read-out: Mcl-1 IC50 ± SD
  IC50: 1.87 ± 0.22 µM
Mcl-1; competitive FP, Ki calculated from IC50, read-out: Mcl-1 Ki ± SD
  Ki: 0.49 ± 0.06 µM
A1/Bfl-1
  fold lower affinity to A1/Bfl-1 than to Mcl-1 (selectivity): 11 fold
A1/Bfl-1; read-out: A1/Bfl-1 Ki ± SD
  Ki: 5.33 ± 1 µM
Bcl-2 [1]
  Ki: 23.8 ± 1.81 µM
Bcl-2 [2]
  fold lower affinity to Bcl-2 than to Mcl-1 (selectivity): more than 50 fold
Bcl-w
  fold lower affinity to Bcl-w than to Mcl-1 (selectivity): 17 fold
Bcl-w; competitive FP, FAM-BID 2 nM, protein 40 nM, read-out: Bcl-w Ki ± SD
  Ki: 8.19 ± 1.9 µM
BxPC-3
  IC50: 3.4 ± 0.4 µM
Panc-1
  IC50: 4.4 ± 1.3 µM
MiaPaCa-2
  IC50: 12.5 ± 1.01 µM
[3]
  concentration from which cytochrome c and Smac are released: ≥ 10 µM
[4]
  inhibition of endogenous interactions of Bax and Bak with Mcl-1: complete inhibition
[5]
  apoptotic cells in MEF DKO cells: 16%
[6]
  half-life at 1 μM: 45 min
BxPC-3 xenograft; day 19 (p<0.0001)
  tumor growth inhibition: 65%
BxPC-3 xenograft; day 22 (p<0.003)
  tumor growth inhibition: 56%
[7]
  histopathology (H&E) of normal tissues: did not cause damage to tested tissues from kidney, liver and pancreas
